From publication PMC3536784, “Structural Characterization of Pandoraea pnomenusa B-356 Biphenyl Dioxygenase Reveals Features of Potent Polychlorinated Biphenyl-Degrading Enzymes” (PLoS ONE, 2013)

Legend:
[1] = target: T1, BPDOB356 (biphenyl dioxygenase, oxygenase component BphAE) (Comamonas testosteroni, UniProt Q46372); assay: X-ray crystal structure of complex, […] Å; format: binding; conditions: biphenyl powder soaked into crystals 24 h, anaerobic; MES pH 6.0; alpha-subunit active site near Fe(II)
T1 construct: gene bphA; heterologously produced, purified anaerobically; heterohexamer (alpha-beta)3; Rieske [2Fe-2S] and mononuclear Fe(II); 18 N-terminal alpha residues disordered; with Biphenyl dioxygenase subunit beta
T1 sequence (Q46372 whole entry): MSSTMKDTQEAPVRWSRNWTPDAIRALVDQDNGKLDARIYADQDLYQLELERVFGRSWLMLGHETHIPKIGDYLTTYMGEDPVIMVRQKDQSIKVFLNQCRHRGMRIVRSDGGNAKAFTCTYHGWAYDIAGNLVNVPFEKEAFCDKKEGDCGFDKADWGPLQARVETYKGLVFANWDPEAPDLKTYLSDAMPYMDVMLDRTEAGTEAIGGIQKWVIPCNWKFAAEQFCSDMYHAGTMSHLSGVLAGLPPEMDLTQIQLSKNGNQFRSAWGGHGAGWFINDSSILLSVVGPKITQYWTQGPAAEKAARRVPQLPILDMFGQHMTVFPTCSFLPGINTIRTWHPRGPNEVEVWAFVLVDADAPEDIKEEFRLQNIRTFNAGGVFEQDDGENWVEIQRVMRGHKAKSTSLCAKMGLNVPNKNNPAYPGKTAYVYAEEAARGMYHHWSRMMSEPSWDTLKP
T1 sequence (Q46373 whole entry partner): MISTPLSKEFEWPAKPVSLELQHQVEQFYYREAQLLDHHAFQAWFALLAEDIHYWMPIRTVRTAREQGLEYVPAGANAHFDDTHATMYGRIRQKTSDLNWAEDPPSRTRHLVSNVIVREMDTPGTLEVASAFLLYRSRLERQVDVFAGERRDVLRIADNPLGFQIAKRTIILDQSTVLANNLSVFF

[2] = target: T2, BPDOB356 (biphenyl dioxygenase, oxygenase component BphAE) (Comamonas testosteroni, UniProt Q46372, M231A); assay: O2 consumption, Clark-type oxygen electrode; conditions: read-out: 2,2′-Dichlorobiphenyl / Km /; apparent; air-saturated 50 mM MES pH 6.0; NADH 123 µM; BphG B356 and BphF LB400 as electron transfer partners; Fe(II) added; partly uncoupled
T2 construct: gene bphA
T2 sequence (Q46372 whole entry M231A): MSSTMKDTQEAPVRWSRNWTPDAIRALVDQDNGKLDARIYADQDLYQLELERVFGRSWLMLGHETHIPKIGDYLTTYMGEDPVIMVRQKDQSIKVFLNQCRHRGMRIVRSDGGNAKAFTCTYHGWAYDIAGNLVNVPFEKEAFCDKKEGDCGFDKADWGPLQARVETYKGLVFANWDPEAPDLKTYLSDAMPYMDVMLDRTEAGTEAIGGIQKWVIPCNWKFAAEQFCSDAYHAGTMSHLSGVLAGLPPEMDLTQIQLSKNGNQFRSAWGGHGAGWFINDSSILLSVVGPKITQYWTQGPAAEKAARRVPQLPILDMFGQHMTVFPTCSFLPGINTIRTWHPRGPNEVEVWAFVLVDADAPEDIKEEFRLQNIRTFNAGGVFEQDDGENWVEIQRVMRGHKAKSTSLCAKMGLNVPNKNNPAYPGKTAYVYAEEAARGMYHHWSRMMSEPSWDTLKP
T2 sequence (Q46373 whole entry partner): as the sequence (Q46373 whole entry partner) above

[3] = target: T3, BPDOB356 (biphenyl dioxygenase, oxygenase component BphAE) (Comamonas testosteroni, UniProt Q46372, M231T); assay: O2 consumption, Clark-type oxygen electrode; conditions: read-out: 2,2′-Dichlorobiphenyl / Km /; apparent; air-saturated 50 mM MES pH 6.0; NADH 123 µM; BphG B356 and BphF LB400 as electron transfer partners; Fe(II) added; partly uncoupled
T3 construct: gene bphA
T3 sequence (Q46372 whole entry M231T): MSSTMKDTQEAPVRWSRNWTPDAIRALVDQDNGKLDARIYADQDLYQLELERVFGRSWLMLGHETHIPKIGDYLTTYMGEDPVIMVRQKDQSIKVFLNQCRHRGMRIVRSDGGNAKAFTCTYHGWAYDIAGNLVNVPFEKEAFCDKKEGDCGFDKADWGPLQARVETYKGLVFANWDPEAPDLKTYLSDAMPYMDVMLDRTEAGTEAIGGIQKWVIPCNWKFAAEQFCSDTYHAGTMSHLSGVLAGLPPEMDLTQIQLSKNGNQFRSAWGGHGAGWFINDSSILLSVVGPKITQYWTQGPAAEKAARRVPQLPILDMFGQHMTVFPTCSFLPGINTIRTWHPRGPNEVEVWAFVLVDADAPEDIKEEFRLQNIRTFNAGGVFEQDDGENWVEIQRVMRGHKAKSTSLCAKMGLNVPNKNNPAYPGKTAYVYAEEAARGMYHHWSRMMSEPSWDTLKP
T3 sequence (Q46373 whole entry partner): as the sequence (Q46373 whole entry partner) above

[4] = target: T1, BPDOB356 (biphenyl dioxygenase, oxygenase component BphAE); assay: O2 consumption, Clark-type oxygen electrode; format: biochemical; conditions: apparent; air-saturated 50 mM MES pH 6.0; NADH 123 µM; BphG B356 and BphF LB400 as electron transfer partners; Fe(II) added; partly uncoupled; read-out: 2,2′-Dichlorobiphenyl / Km /
Source text: O2 consumption, Clark-type oxygen electrode on BPDOB356 (biphenyl dioxygenase, oxygenase component BphAE)

Row | SMILES | X-ray crystal structure of complex, 1.6 Å [1] | Km [2] | Km [3] | Km [4]
1 | c1ccc(-c2ccccc2)cc1 [biphenyl] | 3GZY (BPDOB356) and 3GZX (BPDOB356•biphenyl complex) |  |  | 
2 | Clc1ccccc1-c1ccccc1Cl [2,2′-dichlorobiphenyl] |  | 5.7 µM | 6.4 µM | 1100 nM
